# From BigSolDB 2.1
smiles,measurement,setting,value
O=C(O)CCCCCCCCCCC(=O)O,solubility (mole fraction),"in 2-butanone, 288.15 K",0.0025
same,solubility (mole fraction),"in 2-butanone, 293.15 K",0.0036
same,solubility (mole fraction),"in 2-butanone, 298.15 K",0.005
same,solubility (mole fraction),"in 2-butanone, 303.15 K",0.007
same,solubility (mole fraction),"in 2-butanone, 308.15 K",0.0097
same,solubility (mole fraction),"in 2-butanone, 313.15 K",0.0133
same,solubility (mole fraction),"in 2-butanone, 318.15 K",0.0189
same,solubility (mole fraction),"in 2-butanone, 323.15 K",0.0255
same,solubility (mole fraction),"in 3-pentanone, 288.15 K",0.0013
same,solubility (mole fraction),"in 3-pentanone, 293.15 K",0.0018
same,solubility (mole fraction),"in 3-pentanone, 298.15 K",0.0026
same,solubility (mole fraction),"in 3-pentanone, 303.15 K",0.0036
same,solubility (mole fraction),"in 3-pentanone, 308.15 K",0.005
same,solubility (mole fraction),"in 3-pentanone, 313.15 K",0.0068
same,solubility (mole fraction),"in 3-pentanone, 318.15 K",0.0094
same,solubility (mole fraction),"in 3-pentanone, 323.15 K",0.0128
same,solubility (mole fraction),"in acetic acid, 288.15 K",0.0032
same,solubility (mole fraction),"in acetic acid, 293.15 K",0.0045
same,solubility (mole fraction),"in acetic acid, 298.15 K",0.006
same,solubility (mole fraction),"in acetic acid, 303.15 K",0.0079
same,solubility (mole fraction),"in acetic acid, 308.15 K",0.0112
same,solubility (mole fraction),"in acetic acid, 313.15 K",0.0155
same,solubility (mole fraction),"in acetic acid, 318.15 K",0.02
same,solubility (mole fraction),"in acetic acid, 323.15 K",0.0268
same,solubility (mole fraction),"in acetone, 288.15 K",0.003
same,solubility (mole fraction),"in acetone, 293.15 K",0.0041
same,solubility (mole fraction),"in acetone, 298.15 K",0.0058
same,solubility (mole fraction),"in acetone, 303.15 K",0.0077
same,solubility (mole fraction),"in acetone, 308.15 K",0.0107
same,solubility (mole fraction),"in acetone, 313.15 K",0.0145
same,solubility (mole fraction),"in acetone, 318.15 K",0.0193
same,solubility (mole fraction),"in acetone, 323.15 K",0.0257
same,solubility (mole fraction),"in ethanol, 288.15 K",0.0083
same,solubility (mole fraction),"in ethanol, 293.15 K",0.0107
same,solubility (mole fraction),"in ethanol, 298.15 K",0.0145
same,solubility (mole fraction),"in ethanol, 303.15 K",0.0194
same,solubility (mole fraction),"in ethanol, 308.15 K",0.025
same,solubility (mole fraction),"in ethanol, 313.15 K",0.0317
same,solubility (mole fraction),"in ethanol, 318.15 K",0.0408
same,solubility (mole fraction),"in ethanol, 323.15 K",0.0516
same,solubility (mole fraction),"in ethyl acetate, 288.15 K",0.0012
same,solubility (mole fraction),"in ethyl acetate, 293.15 K",0.0017
same,solubility (mole fraction),"in ethyl acetate, 298.15 K",0.0024
same,solubility (mole fraction),"in ethyl acetate, 303.15 K",0.0034
same,solubility (mole fraction),"in ethyl acetate, 308.15 K",0.0048
same,solubility (mole fraction),"in ethyl acetate, 313.15 K",0.0066
same,solubility (mole fraction),"in ethyl acetate, 318.15 K",0.009
same,solubility (mole fraction),"in ethyl acetate, 323.15 K",0.0122
